From US5177082A, “Huperzines and analogs” (priority 1990, dated 1993) come the findings set out here.

The test system of data set [1] is dogs. As to the kind of experiment: Subacute toxicity in dogs. The format is in vivo, dog. The source says:
Rabbits and dogs: there were 20 rabbits divided into four groups. […] The control group was given im injections of distilled water. […] When the time arrived, the rabbits and dogs were dissected. The routine blood tests glutamic-pyruvic transaminase, zinc turbidity, urea nitrogen and creatinine were all normal. […] The stimulation of the latter was even more outstanding.

Data set [2] has as its system Sciatic Nerve/Tibialis Muscle Preparation. In words: Anesthetized rabbit sciatic nerve/tibialis muscle preparation. The class given is in vivo. Conditions: rabbits.
Experimental: Anesthesized Rat and Rabbit Sciatic Nerve/Tibialis Muscle Preparation
Anesthesia was produced in rats by ip injections of 30 mg/kg of pentobarbital and in rabbits by iv injections of 1 g/kg of urethane. Electric stimulation of the periphery of the sciatic nerve (5-10 V, 0.5 ms, 1 c/10 s) caused tibialis contraction which was recorded on smoked paper.

Take `C/C=C1\[C@H]2C=C(C)C[C@]1(N)c1ccc(=O)[nH]c1C2` [Huperzine A, (5R, 9R, 11E)-5-amino-11-ethylidene-5,6,9,10-tetrahydro-7-methyl-5,9-methanocycloocta[b]pyridin-2(1H)-one]: the “microscopic examination, heart” value in data set [1] (dogs) is “light fat infiltration”. The “routine blood tests, glutamic-pyruvic transaminase, zinc turbidity, urea nitrogen and creatinine” value in data set [1] (dogs) was “all normal”. In addition, the symptoms result in data set [1] (dogs, 0.6 mg/kg im, 180 days) is recorded as “noticeable whole body muscle fiber twitching”. Also, the ECG entry in data set [1] (dogs, im 180 days) is “no drug induced abnormalities”. Moreover, the “pathological changes of internal organs” value in data set [1] (dogs, six months, 90 times (MG) / 750 times (senile dementia) clinical dosage) is “no noticeable pathological changes of internal organs were observed”. For the same compound, the abnormalities entry in data set [1] (dogs, small dosages (0.3 mg/kg im), 180 days) is “No abnormalities were observed”. In data set [1] (each dosage group of dogs), the “microscopic examination, cerebral cortex” value was “cerebral spongiocyte growth and myophagia”. Also, in data set [2] (Oryctolagus cuniculus, iv, read-out: Lowest Effective Dosage for Enhancing Muscle Contraction), the minimal effective dose stood at 0.03 mg/kg. The “Strength of Effect” value in data set [2] (galanthamine = 1.0) is reported as 16.6; in data set [2] (physostigmine = 1.0), 4. In addition, the “effect on electrically stimulated muscle contraction” value in data set [2] (iv (Huperzine A 30 μg/kg)) is reported as “enhancement of the amplitude of the electrically stimulated muscle contraction”.
